Source: US20110008466A1, “METHODS AND COMPOSITIONS FOR ALTERING CELL FUNCTION” (ALLTECH, INC., priority 2006, published 2011)

Legend:
Gadd45b [1] = assay: Gene expression, liver tissue; type: in vivo, mice; conditions: vs Se-deficient, minus = down
Excerpt: (§1) Animal Care. Male C57BL/6J mice were housed singly and started on the experimental diets described below immediately after weaning (21 days of age). The mice were maintained in the Shared Aging Rodent Facility at the William S. Middleton Memorial Veterans Administration Medical Center (Madison, Wis.). Temperature and humidity were maintained at constant levels. Room light was controlled to provide 12-hr cycles of light and dark.
(§2) Experimental diets were created by Harlan Teklad (Madison, Wis.). Selenium content of the diets was determined by Covance Inc. (Madison, Wis.). Five (5) animals were included in each of the following treatment groups: a diet deficient in selenium (SD); a diet supplemented with selenomethionine (SM, obtained from Sigma, St. Louis, Mo.) such that the final selenium content of the diet was one (1) part per million; a diet supplemented with sodium selenite (SS, Sigma) such that the final concentration of selenium in this diet was one (1) part per million; or a diet supplemented with the yeast selenium SEL-PLEX (SP, Alltech, Lexington, Ky.), such that the final concentration of selenium in this diet was one (1) part per million. SEL-PLEX. Mice were provided with water and their respective diet ad libitum for 100 days. […]
(§3) • 1. […] Additionally, a “signal intensity score” was calculated for each probe set as the sum of the signal intensities for all chips (N=20). • 2. […]

[2] = test system: Growth arrest and DNA-damage-inducible 45 beta (Gadd45b); assay: Microarray gene expression, mouse intestine; type: in vivo, mice; conditions: intestinal tissue; vs Se-deficient; minus = down
Excerpt: as §1
(§4) Experimental diets were created by Harlan Teklad (Madison, Wis.). Selenium content of the diets was determined by Covance Inc. (Madison, Wis.). Five (5) animals were included in each of the following treatment groups: a diet deficient in selenium (SD); a diet supplemented with selenomethionine (SM, obtained from Sigma, St. Louis, Mo.) such that the final selenium content of the diet was one (1) part per million; a diet supplemented with sodium selenite (SS, Sigma) such that the final concentration of selenium in this diet was one (1) part per million; or a diet supplemented with the yeast selenium SEL-PLEX (SP, Alltech, Lexington, Ky.), such that the final concentration of selenium in this diet was one (1) part per million. SEL-PLEX. Mice were provided with water and their respective diet ad libitum for 100 days. Diets were stored at the dark at 4° C. and fresh diet was added to feeder twice weekly.
(§5) Tissue sample preparation and microarray analysis. Mice were killed at 100 days of age by cervical dislocation. For intestinal expression studies, the intestine was flushed twice with saline solution and small intestine was measured and divided in three equal segments. A 3-cm region of the middle segment of the small intestine corresponding to the jejunum (˜300 mg of tissue) was cut and rinsed again with physiological saline to completely remove contents, flash frozen in liquid nitrogen and stored at −80° C. For brain (e.g., cerebral cortex) studies, the cerebral cortex was separated from the surrounding brain tissue and was flash frozen in liquid nitrogen and stored at −80° C.
(§6) Total RNA was isolated from using the guanidinium isothiocyanate method of TRIZOL (Life Technologies, Grand Island, N.Y.) and individual samples were used for gene expression profiles. Total RNA was cleaned up by RNeasy Mini kit (Qiagen, Valencia, Calif.). Target RNA was prepared by converting […] total RNA into double-strand cDNA using GeneChip Expression 3′-Amplification Reagents One-Cycle cDNA Synthesis Kit (Affymetrix, Santa Clara, Calif.) with a T7-(dT)24 primer incorporating a T7 RNA polymerase promoter. After cleaning up double-strand cDNA using Genechip Sample Cleanup Module (Affymetrix, Santa Clara, Calif.), biotin-labeled cRNA was synthesized from double-strand cDNA using GeneChip Expression 3′-Amplification Reagents for IVT Labeling (Affymetrix, Santa Clara, Calif.). The biotin-labeled cRNA was cleaned up using Genechip Sample Cleanup Module and was fragmented by heating (35 min at 94° C.).
(§7) Fifteen (15) μg of cRNA fragments were hybridized (16 h at 45° C.) to Mouse Genome 430 2.0 Array (Affymetrix, Santa Clara, Calif.) using GeneChip Hybridization Oven 640. After hybridization, the gene chips were automatically washed and stained with streptavidin-phycoerythrin biotinylated anti-streptavidin using Affymetrix GeneChip Fluidics Station 450. The DNA chips were scanned with Affymetrix GeneChip Scanner 3000 (Affymetrix, Santa Clara, Calif.) to detect the cell signal intensities by laser. All calculations were performed with Affymetrix GeneChip Operating Software (GCOS) version 1.3 after scanning
(§8) • 1. The spreadsheet containing probe set identifiers and signal intensity values was opened in Microsoft Excel (version 11.1.1 for the Macintosh OS-X operating system) and summary statistics were generated (mean signal intensity for each treatment group, standard error of the mean). Two-tailed t-tests (equal variance) were performed for the following treatment groups: SM vs. SD, SS vs. SD, and SP vs. SD. […]

Selenoprotein W (SelW) = assay: Microarray gene expression, mouse intestine; type: in vivo, mice; conditions: 1 ppm Se diet 100 days vs Se-deficient diet
Excerpt: as §1, §4, §5, §6, §7, §8

Thioredoxin Reductase 1 = assay: Microarray gene expression, mouse intestine; type: in vivo, mice; conditions: 1 ppm Se diet 100 days vs Se-deficient diet, all p <0.01
Excerpt: as §1, §4, §5, §6, §7, §8

SelR (Selenoprotein X1) = assay: Microarray gene expression, mouse intestine; type: in vivo, mice; conditions: 1 ppm Se diet 100 days vs Se-deficient diet
Excerpt: as §1, §4, §5, §6, §7, §8

[3] = test system: Cu chaperone for SOD (CCS); assay: Microarray gene expression, mouse intestine; type: in vivo, mice; conditions: 1 ppm Se diet 100 days vs Se-deficient diet
Excerpt: as §1, §4, §5, §6, §7, §8

SOD1 = assay: Microarray gene expression, mouse intestine; type: in vivo, mice; conditions: 1 ppm Se diet 100 days vs Se-deficient diet
Excerpt: as §1, §4, §5, §6, §7, §8

[4] = test system: Growth arrest and DNA-damage-inducible 45 gamma (Gadd45g); assay: Microarray gene expression, mouse intestine; type: in vivo, mice; conditions: vs Se-deficient diet, minus = down
Excerpt: as §1, §4, §5, §6, §7, §8

[5] = test system: Type 1 iodothyronine deiodinase; assay: Microarray gene expression, mouse intestine; type: in vivo, mice; conditions: 1 ppm Se diet 100 days vs Se-deficient diet
Excerpt: as §1, §4, §5, §6, §7, §8

[6] = test system: Gadd45g1p (Growth arrest and DNA-damage inducible 45 gamma interacting protein); assay: Microarray gene expression, mouse cerebral cortex; type: in vivo, mice; conditions: brain; minus = down; * significant relative to Se-deficient animals
Excerpt: as §1, §4, §5, §6, §7, §8

[7] = test system: Complement component 1, q subcomponent binding protein, C1qbp; assay: Microarray gene expression, mouse cerebral cortex; type: in vivo, mice; conditions: vs Se-deficient diet, minus = down, * = significant p<0.01
Excerpt: as §1, §4, §5, §6, §7, §8

Gadd45b [8] = assay: Microarray gene expression, mouse cerebral cortex; type: in vivo, mice; conditions: minus = down
Excerpt: as §1, §4, §5, §6, §7, §8

[9] = test system: Complement component 1, q subcomponent, beta polypeptide, C1qbp; assay: Microarray gene expression, mouse cerebral cortex; type: in vivo, mice; conditions: vs Se-deficient diet, minus = down, * = significant p<0.01
Excerpt: as §1, §4, §5, §6, §7, §8

calpain-5 = assay: Expression level of calpain genes after selenium administration; type: in vivo; conditions: tissue not stated; minus = down; asterisk not explained
Protocol: Compositions and methods of the present invention were analyzed to determine if they were capable of altering the expression levels of calpain genes. Compositions comprising various forms of selenium (e.g., SeM, Sod-sel, and SEL-PLEX) were administered to subjects and the expression levels of calpain genes monitored. The expression level of calpain-5 was altered by treatment in the following ways: free selenomethionine (SM)+1.32*, Sod-sel −1.07, SEL-PLEX −1.44*.

[10] = test system: glycogen synthase kinase-3-beta (GSK-3β); assay: Microarray gene expression, tau kinases, brain; type: in vivo, mice; conditions: vs non-selenium supplemented diet; minus = down; * significant; listed as SS
Excerpt: as §1, §4, §5
(§9) Total RNA was isolated from using the guanidinium isothiocyanate method of TRIZOL (Life Technologies, Grand Island, N.Y.) and individual samples were used for gene expression profiles. Total RNA was cleaned up by RNeasy Mini kit (Qiagen, Valencia, Calif.). Target RNA was prepared by converting […] total RNA into double-strand cDNA using GeneChip Expression 3′-Amplification Reagents One-Cycle cDNA Synthesis Kit (Affymetrix, Santa Clara, Calif.) with a T7-(dT)24 primer incorporating a T7 RNA polymerase promoter. […]

[11] = test system: cyclin-dependent kinase 5 (Cdk-5); assay: Microarray gene expression, tau kinases, brain; type: in vivo, mice; conditions: vs non-selenium supplemented diet; minus = down; * significant; listed as SS
Excerpt: as §1, §4, §5, §9

Gadd45b [12] = assay: Gene expression, skeletal muscle tissue; type: in vivo, mice; conditions: vs Se-deficient, minus = down
Excerpt: as §1, §2, §3

## O=[Se](O)O [Sod-sel, sodium selenite]
Gadd45b [1]
  Fold change Gadd45b gene expression, liv (Table 14): 1.25 fold
[2]
  Fold change Gadd45b gene expression, int (Table 14): 1.08 fold
Selenoprotein W (SelW)
  fold upregulation of Selenoprotein W (SelW) expression: 5.1 fold
Thioredoxin Reductase 1
  fold increase in expression of the Thioredoxin Reductase 1 gene: 1.7 fold
SelR (Selenoprotein X1)
  fold upregulation of SelR gene: 1.3 fold
[3]
  fold enhancement in expression of Cu chaperone for SOD (CCS): 1.28 fold
SOD1
  fold enhanced expression of SOD1: 1.92 fold
[4]
  FC Gadd45g expression (Table 2): −2.0 (p < 0.01) fold
[5]
  fold increase in expression of Type 1 iodothyronine deiodinase: 2.8 fold
[6]
  FC Gadd45g1p expression (Table 11): −1.12 fold
[7]
  FC C1qbp (C1q binding protein) expression: 1.11 fold
Gadd45b [8]; brain, * significant relative to Se-deficient animals
  FC Gadd45b expression (Table 11): −1.39* fold
Gadd45b [8]; cortex tissue, vs Se-deficient
  Fold change Gadd45b gene expression, ctx (Table 14): −1.33 fold
[9]
  FC C1q beta polypeptide (printed C1qbp) expression: −1.35 fold
calpain-5
  expression level of calpain-5 altered by treatment: −1.07
[10]
  FC GsKβ3 (GSK-3β) gene expression: −1.63* fold
[11]
  FC CdK5 gene expression: −1.13 fold
Gadd45b [12]
  Fold change Gadd45b gene expression, skm (Table 14): −2.42 fold
